Laboratory results reported in paper PMC7722354, “7-Substituted 2-Nitro-5,6-dihydroimidazo[2,1-b][1,3]oxazines: Novel Antitubercular Agents Lead to a New Preclinical Candidate for Visceral Leishmaniasis” (Journal of Medicinal Chemistry, 2017).
pIC50: −log10 of the molar value. In brackets after ≈: the same amount, converted by molar mass. Where two headings read alike, the source gives them in different places.

Columns and labels:
L. donovani = system: L. donovani; parameters: method as in PMID 26901446; conditions: cited from earlier work
[1] = parameters: method as in PMID 26901446; conditions: mice, cited from earlier work
M. tb, strain H37Rv [2] = assay: LORA minimum inhibitory concentration assay (hypoxic); assay type: cell-based; conditions: Mycobacterium tuberculosis
Leishmania donovani = assay: L. don amastigote mouse macrophage-based luciferase assay (CDRI); assay type: cell-based; conditions: in mouse macrophages, single test (CDRI)
[3] = kinetic aqueous solubility (Method A); assay type: physicochemical; conditions: 20 °C
[4] = system: human lung fibroblasts (MRC-5 cells); assay: cytotoxicity toward MRC-5 cells (LMPH); assay type: cell-based; conditions: MRC5
Leishmania infantum = assay: L. inf growth inhibition in mouse macrophages (LMPH); assay type: cell-based; conditions: Macrophage, mean of at least two determinations
Trypanosoma cruzi = assay: T. cruzi growth inhibition on MRC-5 cells (LMPH); assay type: cell-based; conditions: MRC5
M. tb, strain H37Rv [5] = assay: MABA minimum inhibitory concentration assay (aerobic); assay type: cell-based, Mycobacterium tuberculosis
[6] = water, pH 7, kinetic, water (pH 7), read-out: aq solubility pH 7
[7] = Mycobacterium tuberculosis, H37RV, aerobic, read-out: MIC MABA
[8] = 0.1 M HCl, pH 1, kinetic, 0.1 M HCl (pH 1), read-out: aq solubility pH 1
[9] = Mycobacterium tuberculosis, H37RV, read-out: MIC MABA, aerobic

Structure (SMILES) | MIC (M. tb, strain H37Rv [2]) | pIC50 (Leishmania donovani) | pIC50 [4] | pIC50 (Leishmania infantum) | pIC50 (Trypanosoma cruzi) | MIC (M. tb, strain H37Rv [5]; [7]) | further results
CC1(COc2ccc(OC(F)(F)F)cc2)Cn2cc([N+](=O)[O-])nc2O1 (racemic) [rac-4] |  |  |  |  |  |  | % inhibition, L. don mouse model (L. donovani; 6.25 mg/kg po daily for 5 d): 99%; ED50 (L. donovani; L. don mouse model): 3.0 mg/kg; AUClast ([1]; intravenous 1 mg/kg): 1.69 μg·;h/mL; C0 ([1]; intravenous 1 mg/kg): 880 ng/mL; CL ([1]; intravenous 1 mg/kg): 9.5 mL/min/kg; Vdss ([1]; intravenous 1 mg/kg): 1.7 L/kg; t1/2 ([1]; intravenous 1 mg/kg): 2.2 h; AUClast ([1]; oral 25 mg/kg): 33.5 μ·h/mL; Cmax ([1]; oral 25 mg/kg): 4100 ng/mL; F (oral bioavailability) ([1]; oral 25 mg/kg): 79%; Tmax ([1]; oral 25 mg/kg): 4.0 h
O=[N+]([O-])c1cn2c(n1)OC(COc1ccc(-c3ccc(F)nc3)cc1)CC2 (centres unmarked) [compound 55, 7-{[4-(6-Fluoropyridin-3-yl)phenoxy]methyl}-2-nitro-6,7-dihydro-5H-imidazo[2,1-b][1,3]oxazine] | 3.5 µM (≈ 1.3 µg/mL) | < 5.00 | < 4.19 | 7.08 | 7.57 | 0.24 µM (≈ 0.0889 µg/mL) | solubility at 15 min [3, 6]: 0.36 µg/mL (≈ 0.972 µM)
O=[N+]([O-])c1cn2c(n1)OC(COc1ccc(-c3ccc(F)cc3F)cn1)CC2 (centres unmarked) [compound 62] | 2.4 µM (≈ 0.932 µg/mL) | 7.15 | < 4.19 | 7.43 | 7.52 | 0.1 µM (≈ 0.0388 µg/mL) | solubility at 15 min [3, 8]: 1.5 µg/mL (≈ 3.86 µM); solubility at 15 min [3, 6]: 0.13 µg/mL (≈ 0.335 µM)
O=[N+]([O-])c1cn2c(n1)OC(COc1ccc(-c3ccc(OC(F)(F)F)cc3)cn1)CC2 (centres unmarked) [compound 64] | 0.47 µM (≈ 0.205 µg/mL) | 7.30 | < 4.19 | 6.46 | 6.92 | 0.02 to 0.04 µM (≈ 0.00873 to 0.0175 µg/mL) | MIC (M. tb, strain H37Rv [5]; aerobic, read-out: MIC MABA): 0.027 µM (≈ 0.0118 µg/mL)
CC1(COc2ccc(-c3ccc(OC(F)(F)F)cc3)cn2)CCn2cc([N+](=O)[O-])nc2O1 (centres unmarked) [compound 65] | 5.3 µM (≈ 2.39 µg/mL) | 6.59 | < 4.19 | 5.42 | 6.00 | 0.13 µM (≈ 0.0585 µg/mL) | 
CC1(COc2ccc(-c3ccc(F)cc3F)nc2)CCn2cc([N+](=O)[O-])nc2O1 (centres unmarked) [compound 92] | 4.9 µM (≈ 1.97 µg/mL) | 6.51 | < 4.19 | 6.77 | 6.57 | 0.4 µM (≈ 0.161 µg/mL) | 
CC1(COc2ccc(-c3ccc(OC(F)(F)F)cc3)nc2)CCn2cc([N+](=O)[O-])nc2O1 (centres unmarked) [compound 96] | 0.88 µM (≈ 0.396 µg/mL) | 6.19 | < 4.19 | 5.40 | 6.60 | 0.05 µM (≈ 0.0225 µg/mL) | 
O=[N+]([O-])c1cn2c(n1)OC(COc1cccc(-c3ccc(F)cc3)n1)CC2 (centres unmarked) [compound 99] | 3 µM (≈ 1.11 µg/mL) | 6.51 | 4.23 | 6.85 | 6.80 | 1.7 µM (≈ 0.63 µg/mL) | solubility at 15 min [3, 8]: 0.56 µg/mL (≈ 1.51 µM); solubility at 15 min [3, 6]: 0.027 µg/mL (≈ 0.0729 µM)
O=[N+]([O-])c1cn2c(n1)OC(COc1cccc(-c3ccc(F)cc3F)n1)CC2 (centres unmarked) [compound 102] | > 128 µM | 6.60 | < 4.19 | 5.40 | 6.64 |  | MIC (M. tb, strain H37Rv [5]; [9]): > 128 µM
O=[N+]([O-])c1cn2c(n1)OC(COc1ccc(-c3ccc(F)cn3)cn1)CC2 (centres unmarked) [compound 105] | 11 µM (≈ 4.08 µg/mL) | 7.22 | < 4.19 | 4.30 | 6.47 | 0.15 µM (≈ 0.0557 µg/mL) | 
CC1(COc2ccc(-c3ccc(F)cn3)cn2)CCn2cc([N+](=O)[O-])nc2O1 (centres unmarked) [compound 106] | 9.5 µM (≈ 3.66 µg/mL) | 6.82 | < 4.19 | 6.47 | 6.60 | 0.4 µM (≈ 0.154 µg/mL) | 
O=[N+]([O-])c1cn2c(n1)OC(COc1ccc(-c3ccc(F)nc3F)cn1)CC2 (centres unmarked) [compound 109] | 4.2 µM (≈ 1.64 µg/mL) | < 5.00 | < 4.19 | 6.72 | 6.54 | 0.25 µM (≈ 0.0973 µg/mL) | 
O=[N+]([O-])c1cn2c(n1)OC(COc1ccc(-c3ccc(F)nc3F)nc1)CC2 (centres unmarked) [compound 114] | 41 µM (≈ 16 µg/mL) | 7.10 | < 4.19 | 4.28 | 6.46 | 1.2 µM (≈ 0.467 µg/mL) | 
CC1(COc2ccc(-c3ccc(F)nc3F)nc2)CCn2cc([N+](=O)[O-])nc2O1 (centres unmarked) [compound 115] | 18 µM (≈ 7.26 µg/mL) | 6.96 | < 4.19 | 6.55 | 6.42 | 0.94 µM (≈ 0.379 µg/mL) | 
O=[N+]([O-])c1cn2c(n1)OC(COc1cccc(-c3ccc(F)nc3)n1)CC2 (centres unmarked) [compound 117] | > 128 µM | < 5.00 | 4.46 | 4.36 | 6.89 |  | MIC (M. tb, strain H37Rv [5]; [9]): > 128 µM
